Measured values as given in publication PMC7481839, “Switchable foldamer ion channels with antibacterial activity” (Chemical Science, 2020).
Where a SMILES comes first, the peptide text is derived from it.

Test: Lucigenin assay of Cl− transport in vesicles
Type: biochemical
Conditions: 10 µM compound, interior NaNO3 200 mM, exterior NaCl (2 M), 0.762 mM lipid, 25°C, first-order curve fit
Experimental: To confirm that chloride could pass through the bilayers, lucigenin assays[5a] were performed for 2, Cu(II)[1]Cl2 and Cu(II)[2]Cl2 (Fig. 5 and ESI, Fig. S10 ^†). The same lipids were used as for the HPTS assays and lucigenin was encapsulated with NaNO3 in the vesicles.
Figure S9: Ionophoric activity determined through an HPTS assay in the presence of NaCl (100 mM) for: 2 (10 µM) in the absence (pink inverted triangles) and presence of FCCP (20 µM, blue triangles) and Cu(II)[2]Cl2 (6 µM) in the absence (red circles) and presence of FCCP (20 µM, black squares). Base pulse at 1 min, TX-100 added at 7 min.
5.4 Preparation of large unilamellar vesicles for lucigenin assays […]
Lucigenin assays procedure and fluorescence normalisation were developed by a modification of published methods.10 An aliquot of the vesicle stock solution (100 μL) w as diluted to 1.9 mL with 200 mM NaNO 3 in water (pH = 7.4) (final lipid co ncentration in cuvette 0.762 mM). […] The cuvette was then placed into a Varian Cary Eclipse fluorescence spectrophotometer in the moderate stirring mode. The fluorescence emission at 505 nm was observed, resulting from excitation at 455 nm, over a period of seven minutes (420 seconds) at 25°C. […] The change in fluorescence was followed for six minutes before final lysis of the vesicles at seven minutes (420 s) by adding an aliquot of a 10 % v/v solution of Triton X-100 […]

In the case of `CC(C)(NC(=O)C(C)(C)NC(=O)C(C)(C)NC(=O)C(C)(C)NC(=O)C(C)(C)n1cc(CN(Cc2ccccn2)Cc2ccccn2)nn1)C(=O)NC(C)(C)C(=O)NC(C)(C)C(=O)NC(C)(C)C(=O)OCC[Si](C)(C)C` [foldamer 2] (HELM PEPTIDE1{[CC(C)(C(=O)[*:2])n1cc(CN(Cc2ccccn2)Cc2ccccn2)nn1].[Aib].[Aib].[Aib].[Aib].[Aib].[Aib].[Aib].[C[Si](C)(C)CCO[*:1]]}$$$$V2.0), the “kobs of Cl− transport (lucigenin assay)” value is reported as 0.0052 s⁻¹.
